# Experimental data taken from ChEMBL document CHEMBL5505978, “Novel estrogen receptor β/histone deacetylase dual-targeted near-infrared fluorescent probes as theranostic agents for imaging and treatment of prostate cancer” (Eur J Med Chem, 2024).
# Activity calls are given as the source filed them. No cut-off for these calls is given here.
# Legend:
# DU-145 [1] = test: cells; assay type: functional, cell-based; conditions: Homo sapiens
# Description: Antiproliferative activity against human DU-145 cells assessed as inhibition of cell growth incubated for 3 to 5 days by CCK-8 assay
# in vitro = conditions: green monkey (Chlorocebus sabaeus), Vero cells
# Description: Antiproliferative activity against green monkey Vero cells assessed as inhibition of cell growth incubated for 3 to 5 days by CCK-8 assay
# [2] = Drug uptake in human DU-145 cells assessed as colocalization in nucleus by measuring fluorescence signal at 10 uM incubated for 30 mins by DAPI staining based fluorescence imaging analysis; assay type: ADME, cell-based; conditions: du-145, 0.5 h
# [3] = Drug uptake in Balb/c mouse xenografted with human DU-145 cells assessed as increase in fluorescence intensity in tumor tissue at 0.5 mg/kg,ip administration and measured at 17 hrs by imaging analysis; assay type: ADME, organism-based, Neoplasm; conditions: in vivo
# [4] = Drug uptake in Balb/c mouse xenografted with human DU-145 cells assessed as increase in fluorescence intensity in tumor at 0.5 mg/kg,ip administration and measured at 17 hrs by imaging analysis; assay type: ADME, organism-based; conditions: in vivo
# [5] = Drug uptake in Balb/c mouse xenografted with human DU-145 cells assessed as increase in fluorescence intensity in tumor tissue at 0.5 mg/kg,ip administration and measured at 24 hrs by imaging analysis; assay type: ADME, organism-based, Neoplasm; conditions: in vivo
# [6] = biological target: Estrogen receptor beta (Homo sapiens) (UniProt Q92731); test: Binding affinity to ERbeta in human DU-145 cells assessed as increase in intracellular fluorescence signal at 10 uM incubated for 1 hr in presence of SAHA by imaging analysis; assay type: cell-based
# Estrogen receptor beta (Homo sapiens), sequence (Q92731 whole entry): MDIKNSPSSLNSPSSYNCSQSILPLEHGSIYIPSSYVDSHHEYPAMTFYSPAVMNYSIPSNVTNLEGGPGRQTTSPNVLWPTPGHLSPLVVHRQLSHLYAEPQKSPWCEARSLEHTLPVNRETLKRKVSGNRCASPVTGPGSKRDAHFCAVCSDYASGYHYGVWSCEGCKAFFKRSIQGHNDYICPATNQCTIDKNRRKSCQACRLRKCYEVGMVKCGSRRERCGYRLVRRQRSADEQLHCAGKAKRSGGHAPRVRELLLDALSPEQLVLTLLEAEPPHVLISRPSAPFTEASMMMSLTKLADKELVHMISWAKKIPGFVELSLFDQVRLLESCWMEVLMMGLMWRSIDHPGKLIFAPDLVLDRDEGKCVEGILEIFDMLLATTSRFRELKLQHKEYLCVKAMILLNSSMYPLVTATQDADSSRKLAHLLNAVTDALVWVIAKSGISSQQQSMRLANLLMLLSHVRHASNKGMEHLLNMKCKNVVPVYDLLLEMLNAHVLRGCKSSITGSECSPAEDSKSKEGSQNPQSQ
# [7] = biological target: Estrogen receptor beta (Homo sapiens) (UniProt Q92731); test: Binding affinity to ERbeta in human DU-145 cells assessed as increase in intracellular fluorescence signal at 10 uM incubated for 30 mins by imaging analysis; assay type: cell-based; conditions: filed as agonist
# [8] = biological target: Estrogen receptor beta (Homo sapiens) (UniProt Q92731); test: Binding affinity to ERbeta in human DU-145 cells assessed as increase in intracellular fluorescence signal at 10 uM incubated for 30 mins in presence of estradiol by imaging analysis; assay type: cell-based
# [9] = biological target: T1, Protein deacetylase HDAC6 (Homo sapiens, UniProt Q9UBN7); test: Inhibition of HDAC6 (unknown origin) preincubated with compound for 30 mins followed by substrate addition measured after 15 mins by fluorescence based assay
# T1 sequence (Q9UBN7 whole entry): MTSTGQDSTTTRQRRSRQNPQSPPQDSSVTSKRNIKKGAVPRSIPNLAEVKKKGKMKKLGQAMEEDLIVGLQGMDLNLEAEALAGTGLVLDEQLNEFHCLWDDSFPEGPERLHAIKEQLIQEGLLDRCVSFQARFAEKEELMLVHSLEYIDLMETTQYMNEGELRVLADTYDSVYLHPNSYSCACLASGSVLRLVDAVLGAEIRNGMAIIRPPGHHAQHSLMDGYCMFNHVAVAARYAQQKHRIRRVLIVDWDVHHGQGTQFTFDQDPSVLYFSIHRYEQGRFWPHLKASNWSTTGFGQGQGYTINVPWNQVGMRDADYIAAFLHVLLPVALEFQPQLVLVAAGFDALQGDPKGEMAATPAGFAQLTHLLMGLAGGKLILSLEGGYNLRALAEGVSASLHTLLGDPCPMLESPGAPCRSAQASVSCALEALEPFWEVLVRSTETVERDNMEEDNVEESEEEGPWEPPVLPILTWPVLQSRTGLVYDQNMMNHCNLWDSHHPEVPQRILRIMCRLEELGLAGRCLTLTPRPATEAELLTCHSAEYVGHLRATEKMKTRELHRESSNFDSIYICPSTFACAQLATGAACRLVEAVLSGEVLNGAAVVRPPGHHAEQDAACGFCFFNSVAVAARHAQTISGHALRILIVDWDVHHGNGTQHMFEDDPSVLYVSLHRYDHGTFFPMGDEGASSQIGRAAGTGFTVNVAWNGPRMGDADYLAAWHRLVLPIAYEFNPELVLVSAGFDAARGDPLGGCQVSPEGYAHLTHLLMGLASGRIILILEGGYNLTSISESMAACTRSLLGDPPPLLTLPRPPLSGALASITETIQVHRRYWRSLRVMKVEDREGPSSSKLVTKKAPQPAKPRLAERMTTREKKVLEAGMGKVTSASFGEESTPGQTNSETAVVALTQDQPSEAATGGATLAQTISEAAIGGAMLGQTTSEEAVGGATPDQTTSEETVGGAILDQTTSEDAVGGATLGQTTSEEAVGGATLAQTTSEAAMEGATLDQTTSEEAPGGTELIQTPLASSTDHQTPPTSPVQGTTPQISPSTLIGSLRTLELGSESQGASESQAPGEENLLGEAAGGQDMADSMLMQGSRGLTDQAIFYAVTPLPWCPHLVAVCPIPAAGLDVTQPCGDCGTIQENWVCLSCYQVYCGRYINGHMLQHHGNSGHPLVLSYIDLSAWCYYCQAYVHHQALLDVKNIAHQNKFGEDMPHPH
# [10] = Drug uptake in Balb/c mouse xenografted with human DU-145 cells assessed as increase in fluorescence intensity in tumor at 0.5 mg/kg,ip administration and measured at 12 hrs by imaging analysis; assay type: ADME, organism-based; conditions: in vivo
# [11] = biological target: Estrogen receptor beta (Homo sapiens) (UniProt Q92731); test: Binding affinity to ERbeta in human DU-145 cells at 10 uM incubated for 30 mins by immunofluorescence based assay; assay type: cell-based; conditions: filed as agonist
# [12] = biological target: T2, Protein deacetylase HDAC6 (Homo sapiens) (UniProt Q9UBN7); test: Binding affinity to HDAC6 in human DU-145 cells at 10 uM incubated for 30 mins by Alexa Fluor 488 staining based immunofluorescence based assay; assay type: cell-based; conditions: filed as agonist
# T2 sequence (whole entry): T1 sequence (Q9UBN7 whole entry)
# [13] = Toxicity in Balb/c mouse xenografted with human DU-145 cells assessed as change in body weight at 10 mg/kg,ip administration once every 2 days for 20 days; assay type: organism-based; conditions: in vivo, 480 h, time 20 day
# DU-145 [14] = test: Antitumor activity against human DU-145 cells xenografted in Balb/c mouse assessed as reduction in tumor weight at 10 mg/kg,ip administration once every 2 days for 20 days; assay type: functional, organism-based; conditions: time 20.0 day
# [15] = Toxicity in Balb/c mouse xenografted with human DU-145 cells assessed as animal death at 10 mg/kg,ip administration once every 2 days for 20 days; assay type: organism-based; conditions: in vivo, 480 h, time 20 day
# [16] = Drug uptake in Balb/c mouse xenografted with human DU-145 cells assessed as increase in fluorescence intensity in tumor tissue at 0.5 mg/kg,ip administration and measured at 36 hrs by imaging analysis; assay type: ADME, organism-based, Neoplasm; conditions: in vivo
# DU-145 [17] = test: Antitumor activity against human DU-145 cells xenografted in Balb/c mouse assessed as reduction in tumor volume at 10 mg/kg,ip administration once every 2 days for 20 days; assay type: functional, organism-based; conditions: time 20.0 day
# [18] = Drug uptake in Balb/c mouse xenografted with human DU-145 cells assessed as increase in fluorescence intensity in liver at 0.5 mg/kg,ip administration and measured at 17 hrs by imaging analysis; assay type: ADME, organism-based; conditions: in vivo
# [19] = Drug uptake in Balb/c mouse xenografted with human DU-145 cells assessed as increase in fluorescence intensity in kidney at 0.5 mg/kg,ip administration and measured at 17 hrs by imaging analysis; assay type: ADME, organism-based; conditions: in vivo
# [20] = Drug uptake in human DU-145 cells assessed as colocalization in […] by measuring fluorescence signal at 10 uM incubated for 30 mins by Mito-Tracker Green staining based fluorescence imaging analysis; assay type: ADME, cell-based; conditions: du-145, 0.5 h
# DU-145 [21] = test: Antitumor activity against human DU-145 cells xenografted in Balb/c mouse assessed as inhibition of tumor growth at 10 mg/kg,ip administration once every 2 days for 20 days; assay type: functional, organism-based; conditions: time 20.0 day
# Histone deacetylase 1 = Histone deacetylase 1 (Homo sapiens, UniProt Q13547); test: Inhibition of HDAC1 (unknown origin) preincubated with compound for 30 mins followed by substrate addition measured after 15 mins by fluorescence based assay
# Histone deacetylase 1, sequence (Q13547 whole entry): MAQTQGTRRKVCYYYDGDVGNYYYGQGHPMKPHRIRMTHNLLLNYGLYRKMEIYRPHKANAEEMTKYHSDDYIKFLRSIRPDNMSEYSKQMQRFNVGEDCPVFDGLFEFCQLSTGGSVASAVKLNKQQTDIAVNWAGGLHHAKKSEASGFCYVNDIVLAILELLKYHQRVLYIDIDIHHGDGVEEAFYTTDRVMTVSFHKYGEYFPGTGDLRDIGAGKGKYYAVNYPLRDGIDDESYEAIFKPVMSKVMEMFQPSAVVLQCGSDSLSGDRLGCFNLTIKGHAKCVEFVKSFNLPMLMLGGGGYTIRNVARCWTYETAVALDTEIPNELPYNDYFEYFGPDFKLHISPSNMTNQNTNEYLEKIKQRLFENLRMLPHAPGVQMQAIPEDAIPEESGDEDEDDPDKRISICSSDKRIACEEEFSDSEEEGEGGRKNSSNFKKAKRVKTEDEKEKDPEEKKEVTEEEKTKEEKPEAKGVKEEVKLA
# [22] = Drug uptake in Balb/c mouse xenografted with human DU-145 cells assessed as increase in fluorescence intensity in tumor at 0.5 mg/kg,ip administration and measured upto 24 hrs by imaging analysis; assay type: ADME, organism-based; conditions: in vivo
IC50 (DU-145 [1]),IC50 (in vitro),Compound,Drug uptake [2],IC50 [9],Activity [11],Activity [12],Activity (DU-145 [14]),Activity (DU-145 [17]),Drug uptake [20],IC50 (Histone deacetylase 1),other results
0.27 µM,1.45 µM,N#CC(C#N)=C1C=C(/C=C/c2ccc(O)cc2)Oc2ccc(O)cc21,–,–,–,–,–,–,–,–,–
–,–,O=C(CCCCCCC(=O)Nc1ccccc1)NO,–,–,–,–,Active,Active,–,–,–
15.3 µM,> 100 µM,N#CC(C#N)=C1C=C(/C=C/c2ccc(O)c(NC(=O)CCCCCCC(=O)NO)c2)Oc2ccc(O)cc21,Active,2.36 µM,96.3%,97.6%,–,–,Active,Not Active,–

Compound,IC50 (DU-145 [1]),IC50 (in vitro),Drug uptake [2],IC50 [9],Activity [11],Activity [12],Activity (DU-145 [14]),Activity (DU-145 [17]),Drug uptake [20],IC50 (Histone deacetylase 1),other results
N#CC(C#N)=C1C=C(/C=C/c2ccc(O)c(NC(=O)CCCCCCC(=O)NO)c2)Oc2ccccc21,0.96 µM,6.13 µM,Active,0.052 µM,90.8%,76.7%,Active,Active,Active,Not Active,Drug uptake [3]: Active; Drug uptake [4]: Active; Drug uptake [5]: Not Active; Activity [6]: inactive; Activity [7]: Active; Activity [8]: inactive; Drug uptake [10]: Active; Activity [13]: Non-Toxic; Activity [15]: Non-Toxic; Drug uptake [16]: Not Active; Drug uptake [18]: Not Active; Drug uptake [19]: Not Active; Activity (DU-145 [21]): Active; Drug uptake [22]: Active
